Laboratory results as given in patent US5399696A, “Isoquinolinyl compounds which are intermediates” (Eli Lilly and Company, priority 1993, dated 1995).

What was measured:
NMDA receptor [1] = test: Antagonism of NMDA-induced depolarization of rat cortical wedges; assay type: cell-based; details: NMDA 40 μM, mean ± standard error (n = 3), read-out: IC50 NMDA, antagonism of cortical wedge depolarization
Method: (§1) The depolarization of rat cortical wedges was used to test the selectivity and potency of the formula I compounds as AMPA antagonists using a technique similar to that described by Harrison and Simmonds. Harrison and Simmonds, Bri. J. Pharmacol., 84, 381-391 (1984). Generally, 4-ml aliquots of NMDA (40 μM), AMPA (40 μM), and kainate (10 μM) were superfused (2 ml/min.) on the grey matter at intervals of 15-20 minutes until stable responses were attained. The tissue was then exposed for 15 minutes to various concentrations of the formula I compounds before retesting the agonists. The IC50 values were calculated from linear regression of log dose-response curves, each point the mean of at least three observations on separate slices from more than one animal.

[2] = tested on: kainic acid (KA) receptor; test: Antagonism of kainate-induced depolarization of rat cortical wedges; assay type: cell-based; details: kainate 10 μM, mean ± standard error (n = 3)
Method: as §1

[3] = molecular target: kainic acid (KA) receptor; test: Radioligand binding: tritiated kainate binding with washed synaptosomal membranes from the rat forebrain; details: tritiated kainate 5 nM, pH 7.4, mean ± standard error (n = 3), values marked ^c single experiment
Method: (§2) The formula I compounds were tested for their ability to inhibit NMDA, AMPA, and kainic acid receptor binding to rat membranes in a radioligand binding assay using [^3 H]CGS19755, [^3 H]AMPA, and [^3 H]KA. For all radioligand binding assays, male Sprague-Dawley rats were used. […] Non-specific binding was determined using 10 μM L-glutamate. Samples were incubated in an ice-bath for 30 minutes, and bound ligand was separated from the free ligand by rapid filtration through WHATMAN GF/B glass fiber filters. Murphy et al, British J. Pharmacol., 95, 932-938 (1988). Kainate binding was performed using washed synaptosomal membranes from the rat forebrain as described by Simon et al. Simon et al, J. Neurochem., 26, 141-147 (1976). Tritiated kainate (5 nM) was added to 50 mM Tris-HCl buffer (pH 7.4 at 4° C.) containing 200-300 μg/ml of tissue protein. Samples were incubated for 30 minutes in an ice-bath, then rapidly filtered using a Brandel cell harvester and WHATMAN GF/C filters. Filters were washed twice with 3 ml of cold buffer. Non-specific binding was determined using 100 μM non-labeled kainate. The binding of [^3 H]AMPA (5 nM) was conducted with crude membranes of rat forebrain in the presence of 100 mM KSCN as described by Nielson et al. Nielson et al, Eur. J. Med. Chem. Chim. Ther., 21, 433-437 (1986). Non-specific binding was determined with 10 μM non-labeled AMPA. The concentration of the formula I compound that inhibited 50% binding (IC50, mean ±standard error, n=3) as calculated by linear regression of displacement data transformed to the Hill equation as described by Bennett. Bennett, Neurotransmitter Receptor Binding, 57-90 (1978).

AMPA receptor [4] = test: Radioligand binding: [^3 H]AMPA binding with crude membranes of rat forebrain
Method: as §2

NMDA receptor [5] = test: Radioligand binding: displacement of [^3 H]CGS19755 from synaptosomal membranes of rat forebrain (NMDA receptor affinity); details: [^3 H]CGS19755 10 nM, mean ± standard error (n = 3), values marked ^c single experiment
Method: as §2

AMPA receptor [6] = test: Antagonism of AMPA-induced depolarization of rat cortical wedges; assay type: cell-based
Method: as §1

[7] = Table I, racemic, [^3 H]AMPA 5 nM, 100 mM KSCN, mean ± standard error (n = 3), values marked ^c single experiment, read-out: IC50 AMPA, receptor binding
[8] = Table III; racemic; AMPA 40 μM; mean ± standard error (n = 3); read-out: IC50 AMPA, antagonism of cortical wedge depolarization
[9] = Table II, enantiopure, [^3 H]AMPA 5 nM, 100 mM KSCN, mean ± standard error (n = 3), values marked ^c single experiment, read-out: IC50 AMPA, receptor binding
[10] = Table IV; enantiopure; AMPA 40 μM; mean ± standard error (n = 3); read-out: IC50 AMPA, antagonism of cortical wedge depolarization
[11] = text summary of Table I, racemic, read-out: selectively displaced ^3 H-AMPA with IC50 values

SMILES	IC50 (NMDA receptor [1]; Table III, racemic)	IC50 KA, receptor binding ([3]; Table I, racemic)	IC50 (AMPA receptor [4]; [7])	IC50 (NMDA receptor [5]; Table I, racemic)	IC50 (AMPA receptor [6]; [8])	further results
O=C(O)[C@@H]1C[C@H]2C[C@H](CCS(=O)(=O)O)CC[C@H]2CN1 (racemic) [Compound 12, (3SR,4aRS,6RS,8aRS)-6-(2-Sulfoethyl)decahydroisoquinoline-3-carboxylic Acid]	> 100 µM	> 100 µM	11.1 µM	61.8 µM	31.4 ± 1.7 µM	IC50 KA, antagonism of cortical wedge depolarization ([2]; Table III, racemic): 100 µM
O=C(O)[C@H]1C[C@@H]2C[C@H](CSc3nn[nH]n3)CC[C@@H]2CN1 [Compound 24]						IC50 (NMDA receptor [1]; Table IV, enantiopure): > 100 µM; IC50 KA, antagonism of cortical wedge depolarization ([2]; Table IV, enantiopure): > 31.6 µM; IC50 KA, receptor binding ([3]; Table II, enantiopure): > 100 µM; IC50 (AMPA receptor [4]; [9]): 21.9 µM; IC50 (NMDA receptor [5]; Table II, enantiopure): > 10 µM; IC50 (AMPA receptor [6]; [10]): 19.8 ± 2.2 µM
O=C(O)[C@@H]1C[C@H]2C[C@H](CSc3nn[nH]n3)CC[C@H]2CN1 [Compound 25, (3S,4aR,6R,8aR)-6[2(1(2)H-Tetrazole-5-yl)-2-thiaethyl]decahydroisoquinoline-3-carboxylic Acid]						IC50 (NMDA receptor [1]; Table IV, enantiopure): > 100 µM; IC50 KA, antagonism of cortical wedge depolarization ([2]; Table IV, enantiopure): 29.1 ± 4.3 µM; IC50 KA, receptor binding ([3]; Table II, enantiopure): 27.9 µM; IC50 (AMPA receptor [4]; [9]): 17.8 µM; IC50 (NMDA receptor [5]; Table II, enantiopure): > 100 µM; IC50 (AMPA receptor [6]; [10]): 9 ± 0.8 µM
O=C(O)[C@@H]1C[C@H]2C[C@@H](CS(=O)(=O)c3nc[nH]n3)CC[C@H]2CN1 [Compound 26, (3S,4aR,6S,8aR)-6-[(1(2-4)H-1,2,4-Triazole-5-yl)sulfonylmethyl]decahydroisoquinoline-3-carboxylic Acid]						IC50 KA, receptor binding ([3]; Table II, enantiopure): > 100 µM; IC50 (AMPA receptor [4]; [9]): 0.63 µM; IC50 (NMDA receptor [5]; Table II, enantiopure): > 100 µM
O=C(O)[C@@H]1C[C@H]2C[C@@H](CSc3ncn[nH]3)CC[C@H]2CN1 (racemic) [Compound 14, (3SR,4aRS,6SR,8aRS)-6-[2-(1(2-4)H-1,2,4-Triazol-5-yl)-2-thiaethyl]decahydroisoquinoline-3-carboxylic Acid]	> 100 µM	> 10 µM	> 10 µM	> 10 µM	68.8 ± 12.3 µM	IC50 KA, antagonism of cortical wedge depolarization ([2]; Table III, racemic): > 100 µM
O=C(O)[C@@H]1C[C@H]2C[C@H](CCSc3nnn[nH]3)CC[C@H]2CN1 (racemic) [Compound 8, (3SR,4aRS,6RS,8aRS)-6-[3-(1(2)H-Tetrazole-5-yl)-3-thiaprop-1-yl]decahydroisoquinoline-3-carboxylic Acid]	> 100 µM	28.76 ± 2.21 µM	10.6 ± 2 µM	49.2 ± 1.86 µM	6.8 ± 1.5 µM	IC50 KA, antagonism of cortical wedge depolarization ([2]; Table III, racemic): 18.1 ± 5.1 µM
O=C(O)[C@@H]1C[C@H]2C[C@@H](CSc3nnn[nH]3)CC[C@H]2CN1 (racemic) [Compound 4, (3SR,4aRS,6SR,8aRS)-6-[2-(1(2)H-Tetrazole-5-yl)-2-thiaethyl]decahydroisoquinoline-3-carboxylic Acid]	> 100 µM	30.1 ± 1.6 µM	0.9 ± 0.14 µM	29.4 ± 6.8 µM	3.3 ± 0.9 µM	IC50 KA, antagonism of cortical wedge depolarization ([2]; Table III, racemic): > 100 µM; IC50 (AMPA receptor [4]; [11]): < 15 µM; selective AMPA receptor antagonism (in words) (AMPA receptor [6]; Table III; cortical wedge; racemic): selective AMPA receptor antagonists
O=C(O)[C@@H]1C[C@H]2C[C@@H](CCCc3nnn[nH]3)CC[C@H]2CN1 (racemic) [Compound 6, (3SR,4aRS,6SR,8aRS)-6-[(1(2)H-Tetrazole-5-yl)prop-1-yl]decahydroisoquinoline-3-carboxylic Acid]		18.65 ± 0.33 µM	16.8 ± 0.46 µM	27 ± 9.9 µM	22 ± 3.8 µM	
CS(=O)(=O)NC(=O)CC[C@H]1CC[C@H]2CN[C@H](C(=O)O)C[C@H]2C1 (relative stereo) [Compound 16, (3SR,4aRS,6RS,8aRS)-6-[2-((N-Methanesulfonyl)carboxamido)ethyl]decahydroisoquinoline-3-carboxylic Acid]		> 100 µM	80 µM	> 100 µM		
O=C(O)[C@H]1C[C@@H]2C[C@H](CS(=O)(=O)c3nc[nH]n3)CC[C@@H]2CN1 [Compound 27, (3R,4aS,6R,8aS)-6-[(1(2-4)H-1,2,4-Triazole-5-yl)sulfonylmethyl]decahydroisoquinoline-3-carboxylic Acid]						IC50 KA, receptor binding ([3]; Table II, enantiopure): > 100 µM; IC50 (AMPA receptor [4]; [9]): 23.6 µM; IC50 (NMDA receptor [5]; Table II, enantiopure): 60.9 µM
O=C(CC[C@H]1CC[C@H]2CN[C@H](C(=O)O)C[C@H]2C1)Nc1nn[nH]n1 (relative stereo) [Compound 17, (3SR,4aRS,6RS,8aRS)-6-[2-(N-(1(2)H-Tetrazole-5-yl)carboxamido)ethyl]decahydroisoquinoline-3-carboxylic Acid]		> 100 µM	45.7 µM	> 100 µM		
CC(Cc1nn[nH]n1)[C@H]1CC[C@H]2CN[C@H](C(=O)O)C[C@H]2C1 (stereo partly drawn) [Compound 18, (3SR,4aRS,6RS,8aRS)-6-[2-(1(2)H-Tetrazole-5-yl)-1-methylethyl]decahydroisoquinoline-3-carboxylic Acid]		28.2 µM	3.37 µM	43.1 µM		IC50 (AMPA receptor [4]; [11]): < 15 µM
O=CN(Cc1nnn[nH]1)[C@H]1CC[C@H]2CN[C@H](C(=O)O)C[C@@H]2C1 (racemic) [Compound 3, (3SR,4aRS,6SR,8aRS)-6-[N-(1(2)H-Tetrazole-5-yl)methylformamido]-decahydroisoquinoline-3-carboxylic Acid]		> 100 µM	29.1 µM	> 100 µM		
O=C(O)[C@@H]1C[C@H]2C[C@@H](CCc3nn[nH]n3)CC[C@H]2CN1 (relative stereo) [Compound 1, (3 SR,4aRS,6RS,8aRS)-6-[2-(1(2)H-Tetrazole-5-yl)ethyl]decahydroisoquinoline-3-carboxylic Acid]	61.3 ± 3 µM	246.98 ± 7.5 µM		26.4 ± 1.95 µM	6 ± 1 µM	IC50 KA, antagonism of cortical wedge depolarization ([2]; Table III, racemic): 31.7 ± 4.4 µM
O=C(O)[C@@H]1C[C@H]2C[C@H](CCc3nn[nH]n3)CC[C@H]2CN1 (relative stereo) [Compound 2, (3SR,4aRS,6SR,8aRS)-6-[2-(1(2)H-Tetrazole-5-yl)ethyl]decahydroisoquinoline-3-carboxylic Acid]	> 100 µM	180.0 ± 22.1 µM	59.6 ± 4.3 µM	60.6 ± 24.8 µM		
O=C(O)[C@@H]1C[C@H]2C[C@@H](CCCCc3nnn[nH]3)CC[C@H]2CN1 (racemic) [Compound 10, (3SR,4aRS,6SR,8aRS)-6-[(1(2)H-Tetrazole-5-yl)but-1-yl]decahydroisoquinoline-3-carboxylic Acid]	> 100 µM	> 100 µM	32 µM	> 100 µM	27.6 ± 3.1 µM	
O=C(O)[C@@H]1C[C@H]2C[C@H](CCc3nn[nH]n3)CC[C@H]2CN1 [Compound 22, (3S,4aR,6S,8a,R)-6-[2-(1(2)H-Tetrazole-5-yl)ethyl]decahydroisoquinoline-3-carboxylic Acid]						IC50 (NMDA receptor [1]; Table IV, enantiopure): > 100 µM; IC50 KA, antagonism of cortical wedge depolarization ([2]; Table IV, enantiopure): 28.9 ± 9.2 µM; IC50 KA, receptor binding ([3]; Table II, enantiopure): 85.3 µM; IC50 (AMPA receptor [4]; [9]): 15.3 µM; IC50 (AMPA receptor [6]; read-out: IC50 AMPA, antagonism of cortical wedge depolarization; Table IV; enantiopure; AMPA 40 μM; mean ± standard error (n = 3)): 21.9 ± 3.3 µM
